In publication PMC3176295 (Bioorganic & medicinal chemistry, 2011):

Columns and labels:
[1] = target: EphE (Rv3670) (Mycobacterium tuberculosis, UniProt O69638); test: EphE inhibition, fluorescent assay with Epoxy Fluor 7; format: biochemical, M. tuberculosis; conditions: for inhibition at 0.01 µM: read-out: % EphE Inhibition at 10 nM, inhibitor 10 nM, substrate 5 μM, duplicate; for EphE activity in words: 10 nM; for % EphE Inhibition at 10 nM: inhibitor 10 nM, substrate 5 μM, duplicate
[2] = tested on: M. tuberculosis H37Rv; test: MIC determination by microbroth dilution against M. tuberculosis; format: cell-based, Mycobacterium tuberculosis; conditions: for antitubercular activity / MIC in words: M. tuberculosis
[3] = target: EphB (Rv1938) (Mycobacterium tuberculosis, UniProt I6YC03); format: biochemical; conditions: 10 nM
Sequence of EphB (Rv1938) (I6YC03 whole entry): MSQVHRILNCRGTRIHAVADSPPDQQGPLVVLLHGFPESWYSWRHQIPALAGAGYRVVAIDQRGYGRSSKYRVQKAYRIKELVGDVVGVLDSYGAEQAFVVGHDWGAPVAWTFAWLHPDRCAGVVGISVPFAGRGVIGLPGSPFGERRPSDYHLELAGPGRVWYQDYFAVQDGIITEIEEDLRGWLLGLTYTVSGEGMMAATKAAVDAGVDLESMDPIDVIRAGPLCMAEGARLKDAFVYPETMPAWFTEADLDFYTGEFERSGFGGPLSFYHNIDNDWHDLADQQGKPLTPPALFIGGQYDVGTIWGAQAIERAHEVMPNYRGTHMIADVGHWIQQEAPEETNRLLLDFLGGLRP

Structure (SMILES)	EphE activity in words [1]	antitubercular activity / MIC in words [2]	EphB inhibition in words [3]	also measured
O=C(Nc1ccc(F)c(F)c1F)NC1C2CC3CC(C2)CC1C3 (stereo not shown) [Compound 1, 1-(2-Adamantyl)-3-(2,3,4-trifluorophenyl)urea]	–	–	–	inhibition at 0.01 µM [1]: > 70%
O=C(NCC12CC3CC(CC(C3)C1)C2)Nc1ccc(F)c(F)c1F [Compound 3, 1-(1-(1-Adamantyl)methyl)-3-(2,3,4-trifluorophenyl)urea]	good EphE activity	good MIC values	relatively poor EphB inhibition	% EphE Inhibition at 10 nM [1]: > 70%
N#Cc1ccc(NC(=O)NC2C3CC4CC(C3)CC2C4)cc1 (stereo not shown) [Compound 10, 1-(2-Adamantyl)-3-(4-cyanophenyl)urea]	good EphE activity	good MIC values	relatively poor EphB inhibition	–
O=C(NCCc1ccccc1)NC1C2CC3CC(C2)CC1C3 (stereo not shown) [Compound 11, 1-(2-Adamantyl)-3-phenethylurea]	good EphE activity	good MIC values	relatively poor EphB inhibition	inhibition at 0.01 µM [1]: > 70%
CCCCCCNC(=O)NC1C2CC3CC(C2)CC1C3 (stereo not shown) [Compound 20, 1-(2-Adamantyl)-3-hexylurea]	good EphE activity	good MIC values	relatively poor EphB inhibition	% EphE Inhibition at 10 nM [1]: > 70%
Cc1ccc(NC(=O)NCC23CC4CC(CC(C4)C2)C3)cc1Cl [Compound 22, 1-(1-(1-Adamantyl)methyl)-3-(3-chloro-4-methylphenyl)urea]	good EphE activity	good MIC values	relatively poor EphB inhibition	–
Cc1ccc(NC(=O)NC2CCCCCCC2)cc1Cl [Compound 24, 1-(3-Chloro-4-methylphenyl)-3-cyclooctylurea]	–	–	–	% EphE Inhibition at 10 nM [1]: > 70%
Fc1ccc(NC(=S)NC2C3CC4CC(C3)CC2C4)c(F)c1F (stereo not shown) [Compound 31, 1-(2-Adamantyl)-3-(2,3,4-trifluorophenyl)thiourea]	–	–	–	fold decrease in MIC activity ([2]; thiourea versus urea 1): 80 fold
O=C(Nc1ccc(F)c(F)c1F)OC1C2CC3CC(C2)CC1C3 (stereo not shown) [Compound 32, 2-Adamantyl 2,3,4-trifluorophenylcarbamate]	–	–	–	additional fold decrease in anti-M. tuberculosis potency ([2]; carbamate, additional to the decrease of thiourea 31): 10 fold
COc1ccc(NC(=O)NC2C3CC4CC(C3)CC2C4)cc1 (stereo not shown) [Compound 35, 1-(2-Adamantyl)-3-(4-methoxyphenyl)urea]	–	good antitubercular activity	–	–
COC(=O)c1ccc(NC(=O)NC23CC4CC(CC(C4)C2)C3)cc1O [Compound 36, Methyl 4-(3-(1-adamantyl)ureido)-2-hydroxybenzoate]	–	good antitubercular activity	–	–
CC(C)CCOc1ccc(NC(=O)Nc2ccc(OCCC(C)C)cc2)cc1 [Compound 41, 1,3-Bis(4-(isopentyloxy)phenyl)urea]	–	inactive	–	–
